Results: ChEMBL document CHEMBL1133871, “4-Aminopiperidine ureas as potent selective agonists of the human beta(3)-adrenergic receptor” (Bioorg Med Chem Lett, 2001)
pEC50: −log10 of the molar value. The source made the active and inactive calls. The calls are words filed in the database; no cut-off is given here.

What was measured:
[1] = molecular target: Beta-1 adrenergic receptor (Homo sapiens, UniProt P08588); test: In vitro agonistic activity assessed by measurement of cAMP accumulation level in CHO cells expressing human beta1-AR receptor; type: functional, cell-based
Sequence of Beta-1 adrenergic receptor (P08588 whole entry): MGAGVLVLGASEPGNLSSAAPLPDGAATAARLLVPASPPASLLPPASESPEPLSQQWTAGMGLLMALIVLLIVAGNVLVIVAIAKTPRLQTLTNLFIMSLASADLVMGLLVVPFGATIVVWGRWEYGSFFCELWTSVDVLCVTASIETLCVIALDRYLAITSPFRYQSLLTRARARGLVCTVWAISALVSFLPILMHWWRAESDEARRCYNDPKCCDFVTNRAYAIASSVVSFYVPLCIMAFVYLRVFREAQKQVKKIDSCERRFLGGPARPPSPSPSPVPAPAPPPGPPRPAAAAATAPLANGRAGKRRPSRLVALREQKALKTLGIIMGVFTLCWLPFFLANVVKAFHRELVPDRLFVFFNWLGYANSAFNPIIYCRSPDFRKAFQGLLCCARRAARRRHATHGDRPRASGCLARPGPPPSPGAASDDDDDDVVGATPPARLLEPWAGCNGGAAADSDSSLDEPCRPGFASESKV

[2] = molecular target: T1, Beta-3 adrenergic receptor (Homo sapiens, UniProt P13945); test: In vitro agonistic activity assessed by measurement of cAMP accumulation level in CHO cells expressing human beta3-AR receptor; type: functional, cell-based
Target sequence in this assay (P13945 whole entry): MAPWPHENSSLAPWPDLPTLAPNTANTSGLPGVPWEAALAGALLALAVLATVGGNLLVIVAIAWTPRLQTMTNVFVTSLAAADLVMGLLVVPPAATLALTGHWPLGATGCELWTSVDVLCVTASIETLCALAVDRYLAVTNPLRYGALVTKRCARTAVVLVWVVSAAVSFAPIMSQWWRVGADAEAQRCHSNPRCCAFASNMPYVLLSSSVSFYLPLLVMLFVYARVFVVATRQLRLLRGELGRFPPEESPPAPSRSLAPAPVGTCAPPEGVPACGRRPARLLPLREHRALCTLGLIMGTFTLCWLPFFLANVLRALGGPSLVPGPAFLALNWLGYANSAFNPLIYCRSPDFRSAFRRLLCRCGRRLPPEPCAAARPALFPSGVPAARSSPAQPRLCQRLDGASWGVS

[3] = molecular target: T2, Adrenergic receptor beta (Homo sapiens, UniProt P08588+P07550+P13945); test: In vitro agonistic activity against cAMP accumulation level in CHO cells expressing human beta-AR receptor; type: functional, cell-based
[4] = molecular target: T2, Adrenergic receptor beta; test: In vitro intrinsic activity is given as percentage of maximal stimulation relative to isoproterenol; Not active; type: functional
[5] = molecular target: T1, Beta-3 adrenergic receptor; test: […] of cAMP accumulation level in CHO cells expressing human beta3-AR receptor at 10 uM concentration; type: functional, cell-based
Target sequence in this assay (P13945 whole entry, looked up): as the sequence (P13945 whole entry) above

[6] = molecular target: T1, Beta-3 adrenergic receptor; test: In vitro agonistic activity assessed by measurement of cAMP accumulation level in CHO cells expressing human beta3-AR receptor; In active; type: functional, cell-based
Target sequence in this assay (P13945 whole entry): as above

[7] = molecular target: T1, Beta-3 adrenergic receptor; test: In vitro intrinsic activity is given as percentage of maximal stimulation relative to isoproterenol; In active; type: functional
Target sequence in this assay (P13945 whole entry): as above

SMILES | pEC50 [1] | other results
O=C(NCc1ccc(F)cc1)N1CCC(Nc2ccc(CCNC[C@H](O)COc3ccc(O)cc3)cc2)CC1 | 6.96 | pEC50 [2]: 7.39
CS(=O)(=O)Nc1cc([C@@H](O)CNCCc2ccc(NC3CCN(C(=O)NCc4cc(F)ccc4F)CC3)cc2)ccc1O | 5.58 | EC50 [3]: 10 nM
O=C(NCc1cc(F)ccc1F)N1CCC(Nc2ccc(CCNC[C@H](O)COc3ccc(O)cc3)cc2)CC1 | 6.28 | Intrinsic activity [4]: inactive
CNC(=O)N1CCC(Nc2ccc(CCNC[C@H](O)COc3ccc(O)cc3)cc2)CC1 | 6.46 | –
CS(=O)(=O)Nc1cc(OC[C@@H](O)CNCCc2ccc(NC3CCN(C(=O)NCc4cc(F)ccc4F)CC3)cc2)ccc1O | 6.37 | –
CCCCCCCCNC(=O)N1CCC(Nc2ccc(CCNC[C@H](O)c3ccc(O)c(C(N)=O)c3)cc2)CC1 | – | Intrinsic activity [5]: 42%
O=C(NCc1c(F)cccc1F)N1CCC(Nc2ccc(CCNC[C@H](O)COc3ccc(O)cc3)cc2)CC1 | 6.12 | Intrinsic activity [4]: inactive
CCCCCCCCNC(=O)N1CCC(Nc2ccc(CCNC[C@H](O)COc3cccc4[nH]c(O)nc34)cc2)CC1 | – | EC50 [6]: Not Active; EC50 [7]: Not Active
O=C(NCc1ccc(F)cc1F)N1CCC(Nc2ccc(CCNC[C@H](O)COc3ccc(O)cc3)cc2)CC1 | 6.34 | Intrinsic activity [4]: inactive
CCCCCCCCNC(=O)N1CCC(Nc2ccc(CCNC[C@H](O)COc3ccc(O)cc3)cc2)CC1 | 6.21 | pEC50 [2]: 8.10
NC(=O)N1CCC(Nc2ccc(CCNC[C@H](O)COc3ccc(O)cc3)cc2)CC1 | 6.29 | –
CCCCCCCCNC(=O)N1CCC(Nc2ccc(CCNC[C@H](O)COc3ccc(O)c4c3CCC(=O)N4)cc2)CC1 | 7.06 | –
CCCCCCCCNC(=O)N1CCC(Nc2ccc(CCNC[C@H](O)COc3ccc(F)cc3)cc2)CC1 | – | inhibition [5]: 37%
O=C(NC1CCCCC1)N1CCC(Nc2ccc(CCNC[C@H](O)COc3ccc(O)cc3)cc2)CC1 | 7.07 | –
O=C(NCc1ccccc1F)N1CCC(Nc2ccc(CCNC[C@H](O)COc3ccc(O)cc3)cc2)CC1 | 6.59 | Intrinsic activity [4]: inactive
CC(C)NC(=O)N1CCC(Nc2ccc(CCNC[C@H](O)COc3ccc(O)cc3)cc2)CC1 | 6.03 | –
O=C(NCc1ccc(Cl)cc1Cl)N1CCC(Nc2ccc(CCNC[C@H](O)COc3ccc(O)cc3)cc2)CC1 | 6.60 | Intrinsic activity [4]: inactive
CCN(CC)C(=O)N1CCC(Nc2ccc(CCNC[C@H](O)COc3ccc(O)cc3)cc2)CC1 | 6.79 | –
O=C(NCCCC1CCCC1)N1CCC(Nc2ccc(CCNC[C@H](O)COc3ccc(O)cc3)cc2)CC1 | 6.73 | –
